Holding throughout (test): NCI tumour cell line growth inhibition, 48 h
In assay [1] the test system is 786-0 renal.
For assay [2], the system named is NCI/ADR-RES ovarian.
The test system of assay [3] is CAKI-1 renal.
The subject of assay [4] is HT29 colon.
For assay [5], the system named is MOLT-4 leukemia.
For assay [6], the system named is SF-295 CNS.
In assay [7] the test system is NCI-H460 lung.
The subject of assay [8] is SN12C renal.
The test system of assay [9] is OVCAR-4 ovarian.
In assay [10] the test system is EKVX NSCLC.

Where “and” joins values, the source holds several entries; their conditions need not be identical. Equal values may be shown once.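 Step 1: Grow cells in 96-well plates. Step 2: Expose to compound for 48 hours at 5 concentrations. Step 3: Interpolate endpoints linearly; if unreached, use highest concentration. Here, GI50 denotes the concentration required for 50% inhibition of growth. At the TGI there is no net growth.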 A value given as a limit tells only on which side of the number the result lay.

On to `COc1cc(OC)c(/C=C/c2c3ccccc3cc[n+]2C)c(OC)c1`, for which the GI50 was 7.37 µM in assay [1]; over 85.5 µM in [2]; 18.6 µM in assay [3]; 1.64 µM in assay [4]; 3.1 µM in [5]; 2.17 µM in assay [6]. Further, the GI50 in assay [7] was 1.82 µM; in assay [8] it was 2.31 µM; in assay [9] it was 1.15 µM. Also, the TGI in assay [1] is over 100 µM; in assay [2] it was over 100 µM; in assay [3], over 100 µM; in assay [4] it was 10.3 µM; in assay [5], 32.8 µM; in assay [6], over 53.4 µM. The TGI was 8.83 µM in assay [7], 18.6 µM in assay [8] and over 100 µM in assay [9].
For `Cc1cc(C)c(NC(=O)c2sc3nc4c(cc3c2N)CN(Cc2ccccc2)CC4)c(C)c1`, the GI50 in assay [1] is 3.48 µM; in assay [2] it was 1.64 µM; in [3], 2.81 µM; in assay [4], 2.88 µM; in assay [5], 4.15 µM; in assay [6], 1.89 µM. The GI50 in assay [7] is 3.29 µM; in assay [8], 5.6 µM; in [9] it was 6.72 µM. Moreover, the TGI in assay [1] is over 100 µM; in [2] it was 6.24 µM; in assay [3], over 100 µM; in assay [4], 13.2 µM; in assay [5], over 100 µM; in assay [6], 64.7 µM. Moreover, the TGI in assay [7] is 16.3 µM; in [8], over 100 µM; in assay [9], over 100 µM.
Take `COC(=O)[C@@H](C)C[C@H](Cc1ccccc1)NC(=O)c1csc([C@@H](C[C@H](C(C)C)N(C)C(=O)[C@@H](NC(=O)[C@H]2CCCCN2C)C2CCCCC2)OC(C)=O)n1`: the GI50 in assay [1] was 0.00175 µM and 0.0025 µM; in assay [2] it was 0.0215 µM and 0.0481 µM; in [4] it was 0.000314 µM and 0.0025 µM; in [10], 0.00278 µM; in assay [5], 0.00512 µM and 0.0025 µM; in assay [6], 0.000346 µM and 0.0025 µM. For the same molecule, the GI50 in assay [7] was 0.000321 µM and 0.0025 µM; in assay [8] it was 0.0041 µM and 0.0025 µM. Further, the TGI in assay [1] is 2.74 µM; in assay [2], over 25 µM; in assay [4], 4.95 µM; in [5] it was 4.87 µM; in [6], over 25 µM; in assay [7] it was over 25 µM. In addition, the TGI was 8.9 µM in [8] and over 25 µM in assay [9].
With `COCC1(CO)C(=O)C2CCN1CC2` (stereo not given), the GI50 was 17.4 µM in [1]; 25.6 µM in assay [2]; 28.1 µM in assay [4]; 18.1 µM in assay [10]; 19.4 µM in assay [5]; over 100 µM in assay [6]. For the same molecule, the GI50 was over 59 µM in assay [7], 16.1 µM in assay [8] and 16.9 µM in assay [9]. The TGI was 35.5 µM in [1]; over 78.6 µM in [2]; over 63.9 µM in assay [4]; 43.4 µM in [10]; 51.4 µM in assay [5]; over 100 µM in [6]. In addition, the TGI in assay [7] was over 100 µM; in [8] it was 31.1 µM; in assay [9], 40.4 µM.
For the molecule `CCN(Cc1ccccc1C)c1ccc(CO)c(Cl)c1`, the GI50 in assay [1] is 15 µM; in assay [2] it was 14.5 µM; in assay [3], 7.88 µM; in assay [4], 9.97 µM; in assay [5], 15.8 µM; in [6], 4.15 µM. For the same molecule, the GI50 was 0.821 µM in assay [7], 12.5 µM in assay [8] and 1.26 µM in [9]. Besides, the TGI worked out at 30.9 µM in assay [1]; 43.8 µM in assay [2]; 32 µM in [3]; 26.3 µM in assay [4]; 39.2 µM in [5]; 16.9 µM in assay [6]. Further, the TGI in assay [7] was 12.7 µM; in [8], 25.9 µM; in assay [9], 11.8 µM.
Take `Cc1cc(C)c(/C=C2\C(=O)Nc3ccc(NC(=O)CCCCCCC(=O)NO)cc32)[nH]1`: the GI50 is 15.1 µM in [1]; over 100 µM in assay [2]; over 100 µM in [3]; 0.859 µM in assay [4]; 0.43 µM in assay [5]; 1.44 µM in [6]. The GI50 in [7] is over 50.6 µM; in [8], over 20.4 µM; in [9], 8.34 µM. Moreover, the TGI in assay [1] was over 100 µM; in assay [2] it was over 100 µM; in assay [3], over 100 µM; in assay [4], over 100 µM; in [5] it was 35.3 µM; in [6], over 45.7 µM. Also, the TGI in assay [7], in assay [8] and in [9] was over 100 µM each time.
`[N-]=[N+]=Nc1cc(=O)[nH]nc1-c1ccccc1`: the TGI in assay [1], in assay [2], in [4], in [10], in [5] and in [6] was over 100 µM each time. Also, the TGI in assay [7], in assay [8] and in assay [9] was over 100 µM each time.
For `CCCOc1ccc2sc(NC(=O)OC)nc2c1`, the GI50 is over 28.2 µM in [1]; 0.793 µM in assay [2]; 2.87 µM in [3]; 0.465 µM in [4]; 2.73 µM in [5]; 2.69 µM in [6]. The GI50 was 3.11 µM in assay [7], 6.2 µM in assay [8] and over 100 µM in assay [9]. Moreover, the TGI in [1] is over 100 µM; in [2], over 47.5 µM; in assay [3] it was over 100 µM; in assay [4] it was over 100 µM; in assay [5], over 100 µM; in assay [6] it was over 100 µM. The TGI in [7], in assay [8] and in [9] was over 100 µM in each case.
On to `COc1ccc(O)c(C(=O)c2ccc(C(=O)N[C@H]3CCCNC[C@@H]3NC(=O)c3ccncc3)cc2)c1F`, for which the GI50 in [1] is 3.07 µM; in assay [2] it was over 25 µM; in [3], over 25 µM; in assay [4], 16.3 µM; in assay [5] it was 1.38 µM; in [6], 1.9 µM. Besides, the GI50 in assay [7] was 10.5 µM; in assay [8] it was 3.61 µM; in assay [9], over 12.3 µM. Besides, the TGI in assay [1] is over 20.2 µM; in [2], over 25 µM; in assay [3], over 25 µM; in assay [4], over 25 µM; in [5] it was 11.6 µM; in assay [6], over 18.9 µM. Moreover, the TGI in assay [7], in assay [8] and in assay [9] was over 25 µM throughout.
Consider `Cc1cc(C)nc(NS(=O)(=O)c2ccc(NC(=O)c3cccc4c(Nc5ccc(S(N)(=O)=O)cc5)c5ccccc5nc34)cc2)n1`, for which the TGI was over 100 µM in assay [1]; over 100 µM in [3]; 97.1 µM in assay [4]; over 100 µM in [10]; 29.3 µM in assay [5]; over 100 µM in assay [6]. Besides, the TGI in [7] was over 100 µM; in [8], over 82.6 µM; in [9] it was over 85.5 µM.
Regarding `CCn1c(=O)c2c(=O)c3c4c(oc3oc2c2ccccc21)C(=O)c1ccccc1C4=O`, the GI50 is over 22.7 µM in [1]; 13.8 µM in assay [2]; 1.47 µM in [10]; 0.366 µM in assay [5]; over 24.2 µM in assay [6]; over 100 µM in assay [7]. Besides, the GI50 in [8] is over 100 µM; in assay [9] it was 0.376 µM. The TGI in [1] is over 100 µM; in [2], over 100 µM; in assay [10], over 100 µM; in assay [5] it was 2.12 µM; in assay [6], over 100 µM; in assay [7] it was over 100 µM. The TGI in assay [8] is over 100 µM; in assay [9], 1.5 µM.
In the case of `COc1ccc(-n2c(C)cc(-c3ccccc3)c2C)cc1`, the GI50 in assay [1] was 1.94 µM; in assay [2], 3.33 µM; in [3], 1.57 µM; in [4], 1.89 µM; in [6], 2.2 µM; in assay [7], 3.13 µM. For the same molecule, the figures for the GI50 in [8] and in [9] were 2.84 µM and 2.46 µM, respectively. In addition, the TGI in assay [1] was 4.85 µM; in assay [2], 21.5 µM; in [3], 7.55 µM; in assay [4], 7.23 µM; in assay [6], 7.58 µM; in assay [7] it was 18.9 µM. Also, the TGI in assay [8] and in assay [9] was over 100 µM each time.
With `COC(=O)/C=C/c1c(CC=C(C)C)ncn1C`, the TGI in assay [1], in assay [3], in [4], in [10], in [5] and in assay [6] was over 100 µM throughout. The TGI in assay [7], in assay [8] and in assay [9] was over 100 µM throughout.
Turning to `CCCN1CN(C(C(=O)N[C@@H]2C(=O)N3C2SC(C)(C)C3C(=O)O)c2ccc(O)cc2)CSC1=S` (stereo not given in full), the TGI in [1], in [3], in assay [4], in assay [10], in [5] and in assay [6] was over 100 µM throughout. The TGI in assay [7], in [8] and in assay [9] was over 100 µM each time.
Turning to `COc1cc(C=O)c(-c2cc(OC)c(OC)cc2C=O)cc1OC`, the TGI in assay [1], in assay [3], in [4], in [10], in [5] and in assay [6] was over 100 µM throughout. Moreover, the TGI in assay [7], in assay [8] and in assay [9] was over 100 µM each time.
As for `COc1ncc(-c2ccc3ncnc(Nc4cccc(Cl)c4)c3c2)cc1NS(=O)(=O)C1CC1`, the results for the GI50 in [1], in assay [2] and in assay [8] were 4.82 µM, 1.17 µM and 1.58 µM, respectively. Moreover, the TGI in assay [1], in assay [2] and in assay [8] was over 100 µM throughout.
With `COc1ccc(-c2ccc(-c3ccc(C(=N)N)s3)s2)cc1`, the GI50 is 0.187 µM in [1]; 0.416 µM in [2]; 0.345 µM in assay [3]; 0.181 µM in assay [4]; 0.315 µM in [5]; 0.188 µM in assay [6]. The GI50 is 0.192 µM in [7], 0.205 µM in assay [8] and 0.187 µM in assay [9]. The TGI was found to be 0.378 µM in [1]; 1.6 µM in assay [2]; 1.19 µM in assay [3]; 0.375 µM in [4]; 0.849 µM in [5]; 0.395 µM in assay [6]. Moreover, the TGI is 0.364 µM in [7], 0.465 µM in assay [8] and 0.399 µM in assay [9].
Regarding `O=C1OCC2C1C1c3ccccc3C(O)c3ccccc3C21` (stereo not given), the TGI in [1], in [3], in [4], in assay [10], in assay [5] and in [6] was over 100 µM each time. For the same molecule, the TGI in assay [7], in [8] and in [9] was over 100 µM in each case.
`O=C1NC(=NCCc2cccc(Cl)c2)S/C1=C\c1ccc2ncccc2c1`: the GI50 in assay [1], in [2], in assay [3], in [4], in assay [5] and in [6] was over 25 µM each time. Moreover, the GI50 in [7], in assay [8] and in assay [9] was over 25 µM throughout. Moreover, the TGI in [1], in [2], in assay [3], in assay [4], in assay [5] and in [6] was over 25 µM each time. Also, the TGI in assay [7], in assay [8] and in [9] was over 25 µM each time.

Values taken from PubChem BioAssay (NCI).
